From article PMC6571863, “Bioassay-Guided Isolation of Triterpenoids as α-Glucosidase Inhibitors from Cirsium setosum” (Molecules, 2019)

Tested on: α-Glucosidase enzyme (from Saccharomyces cerevisiae)
Test: α-glucosidase inhibitory assay (p-NPG substrate, spectrophotometric)
Type: biochemical
Settings: mean SD (n = 3); for Inhibition (%): tested concentration of all samples 100 μM; for IC50: α-glucosidase, p-NPG substrate
Method: A total of 200 μL of reaction mixture, containing 70 μL of 0.1 M phosphate buffer (pH 6.8), 10 μL of 1.0 mg/mL reduced glutathione solution, and 10 μL of the sample solution (test concentration at 0.1 mg/mL), was added to each well of a 96-well plate, followed by the addition of 20 μL of 0.5 U/mL α-glucosidase solution. The plate was incubated at 37 °C for 15 min, and then 20 μL of p-Nitrophenyl α-D-glucopyranoside substrate was added to the mixture to start the reaction. The reaction mixture was incubated at 37 °C for 30 min, and then 70 μL of 0.1 M Na2CO3 solution was added to the mixture to terminate the reaction. All samples were analyzed in triplicate with three different concentrations near the IC50 values. The absorbance (A) was immediately recorded at 400 nm, using a spectrophotometrical method to estimate the enzymatic activity. The inhibition percentage was calculated by the following equation: Inhibitory rate (%) = [1 − (Atest − Ablank)/(control Atest − control Ablank)] × 100%.
Here, Atest represents the absorbance value of the experimental sample, Ablank represents the absorbance value of sample blank, control Atest represents the absorbance value of the control, and control Ablank represents the absorbance value of the blank.

| Inhibition (%) | IC50 [µM] | Compound |
| --- | --- | --- |
| 95.59 ± 2.34 | 22.7 ± 0.25 | CC1=CC(=O)C2(C)CCC3(C)C(CCC4C5(C)CCC(O)C(C)(C)C5CCC43C)C2C1C (stereo not drawn) [Compound 7, 3β-hydroxy-20-taraxasten-22-one] |
| 94.95 ± 1.67 | 17.5 ± 1.42 | CC1=CC(O)C2(C)CCC3(C)C(CCC4C5(C)CCC(O)C(C)(C)C5CCC43C)C2C1C (stereo not drawn) [Compound 4, 3β,22α-dihydroxy-20-taraxastene] |
| 70.34 ± 2.73 | 44.6 ± 1.39 | C[C@@H]1C=C[C@H](O)[C@]2(C)CC[C@]3(C)[C@H](CCC4[C@@]5(C)CC[C@H](O)C(C)(C)C5CC[C@]43C)C12 (stereo partly drawn) [Compound 3, 30-nor-3β,22α-dihydroxy-20-taraxastene] |
| 60.78 ± 5.81 | 68.9 ± 1.82 | CC1=CC(=O)[C@]2(C)CC[C@]3(C)[C@H](CCC4[C@@]5(C)CCC(=O)C(C)(C)C5CC[C@]43C)C2[C@@H]1C (some centres unmarked) [Compound 5, 20-taraxastene-3,22-dione] |
| 59.19 ± 3.81 | 80.1 ± 2.13 | C[C@@H]1C=CC[C@]2(C)CC[C@]3(C)[C@H](CCC4[C@@]5(C)CC[C@H](O)C(C)(C)C5CC[C@]43C)C12 (stereo partly drawn) [Compound 8, 30-nor-3β-hydroxy-20-taraxastene] |

Further lines, the molecule ahead of its results:

| Compound | Inhibition (%) | IC50 [µM] |
| --- | --- | --- |
| COC1C=C(C)C(C)C2C3CCC4C5(C)CCC(O)C(C)(C)C5CCC4(C)C3(C)CCC12C (stereo not drawn) [Compound 2, 3β-hydroxy-22α-methoxy-20-taraxastene] | 93.29 ± 0.74 | 27 ± 0.89 |
| CC1C(COO)=CCC2(C)CCC3(C)C(CCC4C5(C)CCC(O)C(C)(C)C5CCC43C)C12 (stereo not drawn) [Compound 1, 3β-hydroxy-30-hydroperoxy-20-taraxastene] | 99.46 ± 1.04 | 18.3 ± 1.27 |
| CC(=O)O[C@H]1CC[C@@]2(C)C(CC[C@]3(C)C2CC[C@@H]2C4[C@H](C)C(C)=CC(=O)[C@]4(C)CC[C@]23C)C1(C)C (stereo partly drawn) [Compound 6, 3β-acetoxy-20-taraxasten-22-one] | 63.06 ± 7.44 | 54.2 ± 2.25 |
| C[C@H]1O[C@H](O[C@H]2[C@H](O)[C@@H](O)[C@@H](O[C@H]3[C@H](O)[C@@H](O)C(O)O[C@@H]3CO)O[C@@H]2CO)[C@H](O)[C@@H](O)[C@@H]1N[C@H]1C=C(CO)[C@@H](O)[C@H](O)[C@H]1O (some centres unmarked) [Acarbose, acarbose, reference compound] | 78.35 ± 3.41 |  |
